# According to publication PMC4643876, “Picomolar Inhibition of Plasmepsin V, an Essential Malaria Protease, Achieved Exploiting the Prime Region” (PLoS ONE, 2015):
# pIC50, pKi: −log10 of the molar value. Where two headings read alike, the source gives them in different places. Square brackets hold non-standard residues; d marks the D form. Peptide text beside a SMILES is read from it. * marks the point of attachment. Sta = CC(C)C[C@H](N)[C@@H](O)CC(=O)O; Isovaleryl = CC(C)CC(=O)*
# Experiments:
# Plasmepsin V (PmV) = target: T1, Plasmepsin V (PmV) (Plasmodium falciparum, UniProt Q8I6Z5); assay: PmV inhibition, fluorimetric PExEl cleavage assay; format: biochemical; details: for pIC50: read-out: IC50; for IC50: read-out: pIC50 (converted)
# T1 construct: PmV was purified directly from parasites; made in house
# Experimental: Saponin was added to culture to a final 0.05%; parasites were recovered via centrifugation at 4°C after 5 min of incubation on ice; parasite pellets were then washed twice in cold PBS and either immediately lysed or stored at -80°C until lysis. Parasites were lysed via three pulses of ultra-sonication of 10 sec duration, in PBS containing 0.5% Triton-X100 (TX-100). […] Quick washes of the resin were performed either in batches, or over columns, to remove unbound cellular material (four with ice-cold 0.5% TX-100 in PBS and a final one with cold PBS). Resin-bound PmV was stored in PBS at 4°C and used within 2–3 weeks, larger batches had Glycerol added to them, up to 10%, and were stored at -20°C for up to 5 months. […] Quality and purity of PmV batches were routinely confirmed by protein electrophoresis. Quantification of PmV was performed via densitometry analysis of stained protein SDS-PAGE gels relative to BSA standard curves.
# PExEl cleavage activity was monitored by fluorimetric measurement of PExEl cleavage, as previously reported. […] PmV activity was performed at 37°C in 50 mM Tris-Maleate, pH 6.5, 50 mM NaCl, 0.05% TX-100, 2 mM DTT. Assays were routinely conducted in triplicate. Bead-bound enzyme was added to the reaction using ‘end-cut’ micropipette tips in order to facilitate sampling the suspension.
# Inhibitory activities were measured in the presence of a substrate concentration of 3 μM by serial dilution of each compound in triplicates. […] Titration curves of the inhibitors were routinely composed of eleven points from 10 μM to 0.1 pM. PmV concentration was kept in the order of low picomolar (≤10 pM). […] Analysis of the half inhibitory activity (IC50) was performed by sigmoidal interpolation of the starting velocities of the hydrolytic reactions for each condition. Starting velocities were calculated on the initial linear range of the product progression curves. […] Data are presented with error bars indicating the standard deviation of three independent activity curves.
# [1] = system: Plasmodium falciparum strain 3D7; assay: Parasite growth inhibition by flow cytometry, strain 3D7; format: cell-based; details: asynchronous 3D7 cultures, about 4 days, 0.195–200 μM, flow cytometry
# [2] = 3 μM substrate, tested up to 10 μM
# [3] = 3 μM HRPII-PExEl substrate, averages of not less than three inhibition curves
# T1 sequence (Q8I6Z5 whole entry): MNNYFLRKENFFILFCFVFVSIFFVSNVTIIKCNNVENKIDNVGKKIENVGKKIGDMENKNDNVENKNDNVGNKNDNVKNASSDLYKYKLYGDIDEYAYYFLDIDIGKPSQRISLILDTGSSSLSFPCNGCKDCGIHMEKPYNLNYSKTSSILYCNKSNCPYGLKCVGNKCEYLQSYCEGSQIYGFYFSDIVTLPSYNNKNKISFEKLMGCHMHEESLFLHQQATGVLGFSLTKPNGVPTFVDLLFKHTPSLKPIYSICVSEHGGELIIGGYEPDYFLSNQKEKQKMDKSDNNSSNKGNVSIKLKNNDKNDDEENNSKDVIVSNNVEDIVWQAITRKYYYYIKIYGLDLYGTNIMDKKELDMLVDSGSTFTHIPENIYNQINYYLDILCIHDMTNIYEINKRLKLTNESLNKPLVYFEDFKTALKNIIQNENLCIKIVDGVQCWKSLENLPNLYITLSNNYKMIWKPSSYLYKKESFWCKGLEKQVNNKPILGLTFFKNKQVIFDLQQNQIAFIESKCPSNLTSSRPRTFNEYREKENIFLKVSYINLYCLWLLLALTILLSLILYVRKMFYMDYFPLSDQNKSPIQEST
Structure (SMILES),pKi (Plasmepsin V (PmV)),pIC50 (Plasmepsin V (PmV); [3]),further results
CC(C)C[C@H](NC(=O)[C@@H](N)Cc1c[nH]c2ccccc12)C(=O)N[C@@H](CC(C)C)[C@@H](O)CN[C@H](C(=O)N[C@@H](CCC(=O)O)C(N)=O)[C@@H](C)O [Compound 34a],–,–,pIC50 (Plasmepsin V (PmV); [2]): < 5.00
CC(C)C[C@H](NC(=O)[C@@H](N)CCCNC(=N)N)C(=O)N[C@@H](CC(C)C)[C@H](O)CN[C@@H](Cc1ccc(O)cc1)C(=O)NCC(=O)O [LG69B_R],–,–,pIC50 (Plasmepsin V (PmV); Activity): 6.95; IC50 (Plasmepsin V (PmV); Activity): 0.112 µM
CC(C)C[C@H](NC(=O)[C@@H](N)Cc1ccc(O)cc1)C(=O)N[C@@H](CC(C)C)[C@H](O)CN[C@@H](C)C(=O)N[C@@H](CCC(=O)O)C(=O)N[C@@H](C)C(N)=O [Compound 3b],5.18,~4.91,–
CC(C)C[C@H](NC(=O)[C@@H](N)CCCNC(=N)N)C(=O)N[C@@H](CC(C)C)[C@@H](O)CN[C@@H](Cc1ccc(O)cc1)C(=O)N[C@@H](CCC(N)=O)C(=O)N[C@@H](C)C(N)=O [Compound 9a],8.17,7.90,IC50 increase compared to Compound 7a (Plasmepsin V (PmV)): ~ 9 fold; IC50 increase compared to Compound 8a (Plasmepsin V (PmV)): 4–7 fold
CC(C)C[C@H](NC(=O)[C@@H](N)CCCNC(=N)N)C(=O)N[C@@H](CC(C)C)C(O)CN[C@@H](C)C(=O)N[C@@H](CCC(N)=O)C(N)=O (mixture of isomers) [Compound 23],8.16,7.89,IC50 increase compared to Compound 8a (Plasmepsin V (PmV)): 2.5 fold
CC(C)C[C@H](NC(=O)[C@@H](N)CCCNC(=N)N)C(=O)N[C@@H](CC(C)C)C(O)CN[C@@H](C)C(=O)N[C@@H](CCC(=O)O)C(N)=O (mixture of isomers) [Compound 22],9.66,9.38,–
CC(C)C[C@H](NC(=O)[C@@H](N)CCCCN)C(=O)N[C@@H](CC(C)C)[C@@H](O)CN[C@@H](Cc1ccc(O)cc1)C(=O)N[C@@H](CCC(=O)O)C(N)=O [LG62A_S],–,–,pIC50 (Plasmepsin V (PmV); Activity): 4.76; IC50 (Plasmepsin V (PmV); Activity): 17.4 µM
CC(C)C[C@H](NC(=O)[C@@H](N)Cc1ccc(O)cc1)C(=O)N[C@@H](CC(C)C)[C@@H](O)CN[C@@H](C)C(=O)N[C@@H](CCC(=O)O)C(=O)N[C@@H](C)C(N)=O [Compound 3a],5.60,5.33,–
CC(C)C[C@H](NC(=O)[C@@H](N)CCCCN)C(=O)N[C@@H](CC(C)C)[C@@H](O)CN[C@@H](C)C(=O)N[C@@H](CCC(=O)O)C(=O)N[C@@H](C)C(N)=O [Compound 13a],6.39,6.12,pIC50 (Plasmepsin V (PmV); [2]): 6.11
CC(C)C[C@H](NC(=O)[C@@H](N)CCCNC(=N)N)C(=O)N[C@@H](CC(C)C)[C@H](O)CN[C@@H](C)C(=O)N[C@@H](CCC(N)=O)C(=O)N[C@@H](C)C(N)=O [Compound 8b],–,–,LD50 growth inhibition [1]: ~ 120.5 μM
CC(C)C[C@H](NC(=O)[C@@H](N)CCCNC(=N)N)C(=O)N[C@@H](CC(C)C)[C@@H](O)CN[C@@H](Cc1ccc(O)cc1)C(=O)N[C@@H](CCC(=O)O)C(=O)N[C@@H](C)C(N)=O [Compound 7a],9.13,8.86,IC50 increase compared to Compound 1 (Plasmepsin V (PmV)): 4–7 fold
CC(C)C[C@H](NC(=O)[C@H](C)NC(=O)[C@@H](N)CCCNC(=N)N)[C@@H](O)CN[C@@H](Cc1ccc(O)cc1)C(=O)N[C@@H](CCC(=O)O)C(=O)N[C@@H](C)C(N)=O [Compound 11a],8.48,8.21,IC50 increase compared to Compound 7a (Plasmepsin V (PmV)): 5 fold
CC(C)C[C@H](NC(=O)[C@H](CO)NC(=O)[C@@H](N)CCCNC(=N)N)C(O)CN[C@@H](Cc1ccc(O)cc1)C(=O)N[C@@H](CCC(=O)O)C(=O)N[C@@H](C)C(N)=O (mixture of isomers) [Compound 12],7.91,7.64,IC50 increase compared to Compound 7a (Plasmepsin V (PmV)): 15 fold
CC(C)C[C@H](NC(=O)[C@@H](N)CCCCN)C(=O)N[C@@H](CC(C)C)[C@@H](O)CN[C@@H](Cc1ccc(O)cc1)C(=O)N[C@@H](CCC(=O)O)C(N)=O [Compound 30a],–,–,pIC50 (Plasmepsin V (PmV); [2]): < 5.00
CC(C)C[C@H](NC(=O)[C@@H](N)Cc1c[nH]c2ccccc12)C(=O)N[C@@H](CC(C)C)C(O)CN[C@@H](C)C(=O)N[C@@H](CCC(=O)O)C(N)=O (mixture of isomers) [Compound 31],–,–,pIC50 (Plasmepsin V (PmV); [2]): < 5.00
CC(C)C[C@H](NC(=O)[C@@H](N)CCCNC(=N)N)C(=O)N[C@@H](CC(C)C)C(O)CN[C@@H](C)C(=O)NCC(=O)O (mixture of isomers) [Compound 25],8.10,7.83,–
CC(C)C[C@H](NC(=O)[C@@H](N)CCCCN)C(=O)N[C@@H](CC(C)C)[C@@H](O)CN[C@@H](C)C(=O)N[C@@H](CCC(=O)O)C(N)=O [LG61A_S],–,–,pIC50 (Plasmepsin V (PmV); Activity): 5.09; IC50 (Plasmepsin V (PmV); Activity): 8.13 µM

Structure (SMILES),pKi (Plasmepsin V (PmV)),pIC50 (Plasmepsin V (PmV); [3]),further results
CCCCCCCC(=O)N[C@@H](CCCNC(=N)N)C(=O)N[C@@H](CC(C)C)C(=O)N[C@@H](CC(C)C)[C@H](O)CN[C@@H](Cc1ccc(O)cc1)C(=O)N[C@@H](CCC(=O)O)C(=O)N[C@@H](C)C(N)=O [LG63B_R],–,–,pIC50 (Plasmepsin V (PmV); Activity): 8.80; IC50 (Plasmepsin V (PmV); Activity): 0.00158 µM
CC(C)C[C@H](NC(=O)[C@@H](N)CCCCN)C(=O)N[C@@H](CC(C)C)C(O)CN[C@@H](C)C(=O)N[C@@H](CCC(N)=O)C(=O)N[C@@H](C)C(N)=O (mixture of isomers) [Compound 18],–,< 5.00,–
CC(C)C[C@H](NC(=O)[C@@H](N)CCCNC(=N)N)C(=O)N[C@@H](CC(C)C)[C@H](O)CN[C@@H](Cc1ccc(O)cc1)C(=O)N[C@@H](CCC(=O)O)C(N)=O [Compound 2b],7.76,7.49,–
CC(C)C[C@H](NC(=O)[C@@H](N)CCCNC(=N)N)C(=O)N[C@@H](CC(C)C)[C@@H](O)CN[C@@H](C)C(=O)N[C@@H](CCC(N)=O)C(=O)O [Compound 24a],8.05,7.78,–
CC(C)C[C@H](NC(=O)[C@@H](N)Cc1c[nH]cn1)C(=O)N[C@@H](CC(C)C)[C@@H](O)CN[C@@H](C)C(=O)N[C@@H](CCC(=O)O)C(=O)N[C@@H](C)C(N)=O [Compound 14a],6.04,5.77,–
CC(C)C[C@H](NC(=O)[C@@H](N)Cc1c[nH]c2ccccc12)C(=O)N[C@@H](CC(C)C)[C@@H](O)CN[C@@H](C)C(=O)N[C@@H](CCC(N)=O)C(=O)N[C@@H](C)C(N)=O [Compound 19a],5.56,5.29,–
"Cc1cccc(C)c1OCC(=O)N[C@@H](Cc1ccccc1)[C@@H](O)C[C@H](Cc1ccccc1)NC(=O)[C@H](C(C)C)N1CCCNC1=O [Lopinavir, reference compound]",4.96,4.69,–
CC(C)C[C@H](NC(=O)[C@@H](N)CCCNC(=N)N)C(=O)N[C@@H](CC(C)C)C(O)CN[C@@H](C)C(=O)N[C@@H](CCC(=O)O)C(=O)N[C@@H](C)C(N)=O (some centres unmarked) [LG20_Mix],–,–,pIC50 (Plasmepsin V (PmV); Activity): 9.43; IC50 (Plasmepsin V (PmV); Activity): 0.000363 µM
CC(C)C[C@H](NC(=O)[C@@H](N)Cc1c[nH]c2ccccc12)C(=O)N[C@@H](CC(C)C)[C@@H](O)CN[C@@H](CO)C(=O)N[C@@H](CCC(=O)O)C(N)=O [Compound 33a],–,–,pIC50 (Plasmepsin V (PmV); [2]): < 5.00
CC(C)C[C@H](NC(=O)[C@@H](N)Cc1c[nH]cn1)C(=O)N[C@@H](CC(C)C)[C@@H](O)CN[C@@H](Cc1ccc(O)cc1)C(=O)N[C@@H](CCC(N)=O)C(=O)N[C@@H](C)C(N)=O [Compound 20a],5.36,5.09,–
"CC(C)CC(=O)N[C@H](C(=O)N[C@H](C(=O)N[C@@H](CC(C)C)[C@@H](O)CC(=O)N[C@@H](C)C(=O)N[C@@H](CC(C)C)[C@@H](O)CC(=O)O)C(C)C)C(C)C [Pepstatin A, reference compound] (Isovaleryl-VV[Sta]A[Sta]-OH)",4.63,4.36,–
CC(C)C[C@H](NC(=O)[C@@H](N)CCCNC(=N)N)C(=O)N[C@@H](CC(C)C)[C@@H](O)CN[C@@H](Cc1ccc(O)cc1)C(=O)NCC(=O)O [Compound 27a],8.73,8.46,–
CC(C)C[C@H](NC(=O)[C@@H](N)Cc1c[nH]c2ccccc12)C(=O)N[C@@H](CC(C)C)[C@@H](O)CN[C@@H](Cc1ccc(O)cc1)C(=O)N[C@@H](CCC(N)=O)C(=O)N[C@@H](C)C(N)=O [Compound 21a],6.17,5.90,–
CC(C)C[C@H](NC(=O)[C@@H](N)Cc1c[nH]c2ccccc12)C(=O)N[C@@H](CC(C)C)C(O)CN[C@@H](C)C(=O)N[C@@H](CCC(=O)O)C(N)=O (mixture of isomers) [LG51_Mix],–,–,pIC50 (Plasmepsin V (PmV); Activity): 4.40; IC50 (Plasmepsin V (PmV); Activity): 39.8 µM
CC(C)C[C@H](NC(=O)[C@@H](N)Cc1c[nH]c2ccccc12)C(=O)N[C@@H](CC(C)C)[C@@H](O)CN[C@@H](Cc1ccc(O)cc1)C(=O)N[C@@H](CCC(=O)O)C(N)=O [Compound 32a],–,–,pIC50 (Plasmepsin V (PmV); [2]): < 5.00
CC(C)C[C@H](NC(=O)[C@@H](N)CCCNC(=N)N)C(=O)N[C@@H](CC(C)C)[C@@H](O)CN[C@@H](Cc1ccc(O)cc1)C(=O)N[C@@H](CCC(N)=O)C(=O)O [Compound 26a],8.03,7.76,–
CC(C)C[C@H](NC(=O)[C@@H](N)CCCNC(=N)N)C(=O)N[C@@H](CC(C)C)[C@@H](O)CN[C@@H](Cc1ccc(O)cc1)C(=O)N[C@@H](CCC(=O)O)C(N)=O [Compound 2a],9.01,8.74,–
